Among the data in the METLIN SMRT retention time set (Domingo-Almenara et al. 2019) are RP-LC retention time values, retold here.

SMILES strings stand for the structures.

The nature of this data set: gradient 5% acetonitrile 3 min, to 50% in 2 min, to 85% in 15 min, held 3 min, 100 µL/min. The conditions noted are these: column: Zorbax Extend-C18 2.1 x 50 mm; eluents: water / acetonitrile, 0.1% formic acid. The procedure, abridged: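 Retention times come from adduct peaks that were picked computationally and then checked by hand. The standards, pure and pooled in mixtures of ~100 molecules, were run on a Zorbax Extend-C18 column (2.1 × 50 mm, 1.8 μm) at 100 μL/min with water and acetonitrile, each with 0.1% formic acid. Detection was by quadrupole time-of-flight mass spectrometry in positive and negative ionization mode, with a dead volume of 40 μL and a dwell volume of 900 μL.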
`COc1ccc(C(=O)N2CCCn3cc(-c4ccccc4F)nc32)cn1` yielded an RP-LC retention time of 587 s.

`c1ccc(-c2nc3ccccn3c2Nc2ccc3c(c2)OCO3)cc1` returned an RP-LC retention time of 677 s. To `O=C(c1cncc(NS(=O)(=O)c2ccc(Cl)cc2)c1)N1CCCc2ccccc21` belongs 880 s. For the molecule `Cc1cc(NS(=O)(=O)c2ccc(F)cc2C)n(C2CCS(=O)(=O)C2)n1` (centres undefined), the RP-LC retention time came to 753 s. Molecule `O=C(NCC1CCCO1)N1CC(c2nc(CCOCc3ccccc3)no2)C1` (centres undefined) had an RP-LC retention time of 713 s. Molecule `CCn1cnc(S(=O)(=O)N2CCCC(C(=O)NC3CCCCCCC3)C2)c1` (centres undefined) had an RP-LC retention time of 788 s.

In the case of `CCOc1ccccc1C(=O)N1CCN(S(=O)(=O)c2cc3c4c(c2)CCC(=O)N4CCC3)CC1`, the RP-LC retention time stood at 820 s.

Turning to `O=C(N1CCC(Cc2ccc(COCc3ccncc3)cc2)CC1)C1(c2ccccc2)CC1`, the RP-LC retention time is 795 s. On to `COc1ccc(-c2nn3c(-c4cc(C(C)C)[nH]n4)nnc3s2)c(OC)c1`, for which the RP-LC retention time stood at 915 s.

As to `COc1ccc(C(=O)NC2CCN(c3nnc4ccc(C(F)(F)F)cn34)CC2)cc1`, the RP-LC retention time came to 751 s. For the molecule `CCOc1cccc(-c2noc(Cn3ncn4nc(-c5cccs5)cc4c3=O)n2)c1`, the RP-LC retention time was found to be 1140 s. In the case of `COc1ccc(CSc2nccc3c2ccn3CC(=O)N2CCN(c3ccc(F)cc3)CC2)cc1` it was 777 s; in that of `Cn1c(SCC(=O)N2CCC(C(N)=O)CC2)nnc1-c1sc2ncccc2c1N`, 577 s. In the case of `CCc1nc2ccccc2n1CC(O)COc1cc(C)c(Cl)c(C)c1` (centres undefined) it was 770 s; in that of `CCc1ccc(CNC(=O)CN2CCc3ccccc3C2C(=O)N2CCCC2)cc1` (centres undefined), 860 s. Take `O=C(c1ccccn1)N1CC(n2cc(COc3ccncc3)nn2)C1`: the RP-LC retention time was determined as 566 s. For the molecule `Cc1ccc(C)c(NC(=O)C2CCCN2S(C)(=O)=O)c1` (centres undefined), the RP-LC retention time came out at 738 s.

On to `CC(=O)Nc1ccc(C(=O)NC2CCN(c3cc(N4CCCC4)cnn3)C2)cc1` (centres undefined), for which the RP-LC retention time came out at 598 s. In the case of `CCOCCCNC(=O)N1CC(Oc2ccc(-c3nc(-c4ccccc4)no3)cc2)C1` it was 985 s; in that of `CSc1cccc(NC(=O)COc2cccc(-c3nnc4n3CCCC4)c2)c1`, 728 s.

As to `CC(C)c1noc(-c2cc(=O)n(CC(=O)NCc3ccccc3Cl)c3ccccc23)n1`, the RP-LC retention time stood at 988 s.

On to `CCc1onc(C)c1C1CCCN1C(=O)Nc1ccccc1OC` (centres undefined), for which the RP-LC retention time turned out to be 825 s.

In turn, `Cc1ccc(N2CCC(NC(=O)Cc3cccs3)C2=O)cc1` (centres undefined) gave an RP-LC retention time of 827 s.

`O=S(=O)(c1cc(-c2noc(C3CCCC3)n2)cs1)N(Cc1cccs1)C1CCCC1` returned an RP-LC retention time of 933 s. In turn, `CCCNc1cc(N2CCC(CCC(=O)NCc3ccc(F)c(Cl)c3)CC2)ncn1` had an RP-LC retention time of 713 s. For the molecule `O=S(=O)(CCc1noc(C2COc3ccccc3O2)n1)c1ccccc1` (centres undefined), the RP-LC retention time came to 927 s. `CC#C[C@@H](CC(=O)O)c1ccc(OCc2ccc(CN3CCC4(C=Cc5ccccc54)CC3)s2)cc1`: the RP-LC retention time worked out at 915 s. Turning to `O=S1(=O)N(Cc2cccc(F)c2)CCCN1Cc1ccccc1Cl`, the RP-LC retention time came to 1180 s. Turning to `Cc1c(C(=O)N2CCOCC2)cnn1-c1cc(-c2nc(C3CC3)no2)ccn1`, the RP-LC retention time came out at 797 s. Regarding `Cc1nc(-c2csc(S(=O)(=O)N3CCCC(C(=O)Nc4ccccc4)C3)c2)no1` (centres undefined), the RP-LC retention time turned out to be 927 s. As for `CCCCNC(=O)C1CCCN(C(=O)c2[nH]c(C)c(C(=O)OC)c2C)C1` (centres undefined), the RP-LC retention time turned out to be 692 s. In the case of `COc1ncccc1C(=O)NCCCn1nc(-c2ccc(F)cc2)ccc1=O` it was 734 s; in that of `C=CCN1C(=O)COc2ccc(-c3nc(NC(=O)C(C)C)sc3C)cc21`, 922 s; in that of `O=C(Nc1nccnc1C(=O)NCCCN1CCCC1)c1ccccc1`, 609 s. In the case of `Cn1c(C(=O)N(Cc2ccccc2)Cc2ccccc2)cc2c(=O)n3ccccc3nc21` it was 1040 s; in that of `CCOc1ccc(CN(Cc2cc(=O)n3cc(Cl)ccc3n2)CC(C)C)cc1`, 734 s. `CCOC(=O)N1CCN(S(=O)(=O)c2ccc(C(=O)Nc3nnc(C4CC4)o3)cc2)CC1` had an RP-LC retention time of 661 s. The molecule `COc1cc(Cl)c(NC(=O)C2CCN(S(=O)(=O)c3cn(C(C)C)cn3)CC2)c(OC)c1` had an RP-LC retention time of 797 s.

Take `Fc1cccc(-c2nc(-c3ccc4c(c3)ncn4CCN3CCOCC3)no2)c1`: the RP-LC retention time came out at 642 s. The molecule `COc1ccc(NS(=O)(=O)c2ccc(-c3c(C)noc3C)cc2)cc1OC` had an RP-LC retention time of 806 s. Molecule `Cc1csc(-c2cc(S(=O)(=O)N3CCOCC3)c(C)n2C)n1` came in with an RP-LC retention time of 824 s.

`Cc1c(-c2noc(-c3ccc(N(C)C)cc3)n2)nnn1-c1ccc(F)cc1` showed an RP-LC retention time of 1040 s.

In turn, `O=C(Nc1ccc2c(c1)OCCO2)C1CCCN(C(=O)c2cc(-c3ccccn3)n[nH]2)C1` (centres undefined) gave an RP-LC retention time of 656 s. To `CC1CCN(S(=O)(=O)c2ccc3nn(Cc4ccc(Cl)cc4)c(=O)n3c2)CC1` belongs 819 s; to `O=C(Nc1ccc(F)c(Cl)c1)c1nc2ncccn2n1`, 729 s.

The molecule `CCCN1C(=O)c2cccnc2Sc2cc(C(=O)N3CCN(CC)CC3)ccc21` displayed an RP-LC retention time of 594 s. In turn, `COc1ccc(C2C(C(=O)NCCCN3CCOCC3)CCC(=O)N2c2ccc(OC)cc2)cc1` (centres undefined) gave an RP-LC retention time of 580 s. For the molecule `CCCc1nc2cccnc2n1C1CCN(C(=O)c2ccc(OC)nc2)C1` (centres undefined), the RP-LC retention time was 588 s. With `CC(C)c1cccc(C(C)C)c1N1C(=O)c2ccc(O)cc2C1=O`, the RP-LC retention time stood at 1130 s. Turning to `CCC1(C(=O)OC)CCc2c(cc(OC)c3ccccc23)C1=O` (centres undefined), the RP-LC retention time amounted to 1250 s.

`O=C(c1ccccc1)N1CCC(n2c(-c3ccoc3)nc3cccnc32)C1` (centres undefined) came in with an RP-LC retention time of 695 s. In the case of `CC(=O)c1ccc(NC(=O)Cn2cnc3nc4c(cc3c2=O)CCCC4)cc1`, the RP-LC retention time stood at 671 s. `COc1cccc(-c2noc(CCn3nc(-c4cccc(Cl)c4)ccc3=O)n2)c1OC` displayed an RP-LC retention time of 947 s.

Turning to `COc1ccccc1Cc1noc(C2CN(S(=O)(=O)c3c(C)noc3C)C2)n1`, the RP-LC retention time came to 897 s. Regarding `Cc1ccc(-c2cc(C(=O)N(C)C)n(C)c2)cc1`, the RP-LC retention time was 891 s.

`CCC(c1cccs1)N1C(=O)[C@H]2CN(S(=O)(=O)c3ccc(F)cc3F)C[C@H]2C1=O` (some centres undefined): the RP-LC retention time is 1000 s. In the case of `COc1ccc(CNC(=O)C2CCCN2S(=O)(=O)c2cc3c(cc2Cl)NC(=O)CO3)cc1` (centres undefined), the RP-LC retention time came out at 745 s. To `Cc1ccc(-c2noc(CCn3nc(-c4ccc5c(c4)OCO5)ccc3=O)n2)cc1` belongs 968 s; to `O=C(CSc1ccc(F)cc1)N1CCCC(c2nnc(-c3ccc4c(c3)OCO4)o2)C1` (centres undefined), 810 s.

With `Cn1c(C(=O)NCCN2CCCCCC2)cc2c(-c3cccs3)nn(-c3ccccc3)c21`, the RP-LC retention time worked out at 782 s.

`CCOC(=O)CNC(=O)NCc1cccn1Cc1ccccc1C` registered an RP-LC retention time of 737 s. The molecule `O=C(CSc1ncnc2c(-c3ccccc3)c[nH]c12)Nc1ccc2c(c1)OCO2` showed an RP-LC retention time of 824 s.

`O=C(Nc1ccc2c(c1)OCCO2)N1CCCn2nc(-c3cccc(Cl)c3)cc2C1` gave an RP-LC retention time of 919 s. Consider `Cc1onc(-c2ccccc2Cl)c1C(=O)NCC1(c2cccs2)CC1`, for which the RP-LC retention time stood at 950 s. Regarding `COC(=O)c1ccccc1Nc1c(-c2ccc(OC)cc2)nc2cnccn12`, the RP-LC retention time worked out at 948 s.

In turn, `Cc1cc(C)n(-c2ccnc(N3CCC(C(=O)NCCc4cccs4)CC3)n2)n1` yielded an RP-LC retention time of 843 s. To `Cc1ccc(NC(=O)c2c(C)oc3nc(C)nc(N4CCOCC4)c23)c(C)c1` belongs 849 s. The molecule `Cc1ccc(F)cc1NS(=O)(=O)c1cc2n(c1)CCCNC2=O` had an RP-LC retention time of 671 s. With `O=S(=O)(c1cccc2nsnc12)N1CCc2nc(-c3ccc(F)cc3)ncc2C1`, the RP-LC retention time worked out at 1040 s. As for `Cc1[nH]c(C(=O)N2CCCC(C(=O)NCCCN3CCCCCC3)C2)c(C)c1C(=O)OC(C)C` (centres undefined), the RP-LC retention time stood at 650 s.

As to `O=C(Nc1ccc(CN2CCN(c3ccccn3)CC2)cc1)c1ccccc1C(F)(F)F`, the RP-LC retention time was 564 s. `Cc1cc(Cl)ccc1NC(=O)c1cc(C(C)C)on1` came in with an RP-LC retention time of 1090 s. As to `O=C(Cn1cnc(-c2nc(-c3ccccc3)cs2)c1)Nc1ccccc1`, the RP-LC retention time is 819 s. On to `Cc1cc(C(=O)Nc2cc(-c3ccco3)nn2CCO)no1`, for which the RP-LC retention time came out at 725 s. Turning to `CC(C)C(=O)Nc1ccc(N2CCN(c3ccccc3)C2=O)nc1`, the RP-LC retention time worked out at 832 s. To `O=C(NCc1ccc(Cl)cc1)C1CCN(C(=O)C2Sc3ccccc3NC2=O)CC1` (centres undefined) belongs 765 s; to `CCCn1c(CCc2cccc(NS(=O)(=O)c3cnn(CC)c3)c2)nc2ccccc21`, 675 s. With `Cc1ccc2c(Nc3ccc(C)c(Cl)c3)c(C(=O)N3CCOCC3)cnc2n1`, the RP-LC retention time turned out to be 610 s. Molecule `Cn1c(=O)c(NCCCN2CCCc3ccccc32)nc2ccncc21` came in with an RP-LC retention time of 665 s.
